Literature values, collected in patent US20190125940A1, “STENTS FOR THE RELEASE OF ACTIVE PRINCIPLES” (CID S.p.A., priority 2016, published 2019).

Settings: related to complete in vitro release at 30 hours; Eurointervention 2012; 7:1087-1094

in vivo release after coronary implantation: greater than 30 days
Structure (SMILES): CO[C@H]1C[C@@H]2CC[C@@H](C)[C@@](O)(O2)C(=O)C(=O)N2CCCC[C@H]2C(=O)O[C@H]([C@H](C)C[C@@H]2CC[C@@H](O)[C@H](OC)C2)CC(=O)[C@H](C)/C=C(\C)[C@@H](O)[C@@H](OC)C(=O)[C@H](C)C[C@H](C)/C=C/C=C/C=C/1C [Sirolimus]
